Assays:
barnyardgrass [1] = test: Test B pre-/postemergence herbicide test; assay type: in vivo, Echinochloa crus-galli; conditions: for Barnyardgrass plant response rating: postemergence, visual rating
Summary of the method: (§1)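 Herbicidal effect was judged by eye on a 0–100 scale after plants stood 13 to 15 days in the greenhouse following pre- or postemergence treatment with surfactant-containing formulations.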

Surinam grass = test: Test B pre-/postemergence herbicide test; assay type: in vivo, Urochloa decumbens; conditions: for Surinam Grass plant response rating: postemergence, visual rating
Summary of the method: (§2)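 Greenhouse pot assay with simultaneous preemergence (treated seed) and postemergence (2–18 cm seedlings) applications of surfactant-containing, non-phytotoxic solvent formulations. Response scored visually 13–15 days later on a 0–100 scale, 100 meaning complete control.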

cocklebur = test: Test B pre-/postemergence herbicide test; assay type: in vivo, Xanthium strumarium; conditions: for Cocklebur plant response rating: postemergence, visual rating
Summary of the method: as §1

corn = test: Test B pre-/postemergence herbicide test; assay type: in vivo, Zea mays; conditions: for Corn plant response rating: postemergence, visual rating
Summary of the method: as §2

large crabgrass = test: Test B pre-/postemergence herbicide test; assay type: in vivo, Digitaria sanguinalis; conditions: for Crabgrass, Large plant response rating: postemergence, visual rating
Summary of the method: as §2

giant foxtail = test: Test B pre-/postemergence herbicide test; assay type: in vivo, Setaria faberi; conditions: for Foxtail, Giant plant response rating: postemergence, visual rating
Summary of the method: as §2

pigweed = test: Test B pre-/postemergence herbicide test; assay type: in vivo, Amaranthus retroflexus; conditions: for Pigweed plant response rating: postemergence, visual rating
Summary of the method: as §2

velvetleaf = test: Test B pre-/postemergence herbicide test; assay type: in vivo, Abutilon theophrasti; conditions: for Velvetleaf plant response rating: postemergence, visual rating
Summary of the method: as §2

blackgrass = test: Test B postemergence herbicide test; assay type: in vivo, Alopecurus myosuroides; conditions: scale 0 (no effect) to 100 (complete control); for Blackgrass plant response rating: postemergence, visual rating
Summary of the method: (§3)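 Treated at 2-leaf (paddy) or 1–4-leaf, 2–18 cm (postemergence); greenhouse 13–15 d; visual score vs control, 0 none to 100 complete control; dash = not tested.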

wheat = test: Test B postemergence herbicide test; assay type: in vivo, Triticum aestivum; parameters: key to Wheat plant response rating: 0 = no effect, 100 = complete control; conditions: scale 0 (no effect) to 100 (complete control); for Wheat plant response rating: postemergence, visual rating
Summary of the method: (§4)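 After treating 2-leaf paddy plants or 2–18 cm postemergence plants (1 to 4 leaves) with formulated chemical, researchers kept them in a greenhouse for 13–15 days. Effects were judged visually versus controls: 0 indicates none, 100 total control.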

wild oat = test: Test B postemergence herbicide test; assay type: in vivo, Avena fatua; conditions: scale 0 (no effect) to 100 (complete control); for Oat, Wild plant response rating: postemergence, visual rating
Summary of the method: as §4

rice = test: Test B flooded paddy test; assay type: in vivo, Oryza sativa; conditions: 1000 g ai/ha, visual rating, scale 0 to 100 (0 no effect, 100 complete control), 13 to 15 days
Summary of the method: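 Greenhouse test; postemergence application to plants at 1–4 leaves (2–18 cm); paddy species at 2 leaves; evaluated visually vs controls at 13–15 days; scale 0–100 (100 = complete control).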

[2] = system: small flower umbrella sedge; test: Test B flooded paddy test; assay type: in vivo, Cyperus difformis; conditions: 1000 g ai/ha, visual rating, scale 0 to 100 (0 no effect, 100 complete control), 13 to 15 days
Summary of the method: as §3

ducksalad = test: Test B flooded paddy test; assay type: in vivo, Heteranthera limosa; conditions: 1000 g ai/ha, visual rating, scale 0 to 100 (0 no effect, 100 complete control), 13 to 15 days
Summary of the method: as §3

barnyardgrass [3] = test: Test B flooded paddy test; assay type: in vivo, Echinochloa crus-galli; conditions: 1000 g ai/ha, visual rating, scale 0 to 100 (0 no effect, 100 complete control), 13 to 15 days
Summary of the method: as §3

[4] = 500 g ai/ha, visual rating 0-100, 0 no effect, 100 complete control, preemergence
[5] = Postemergence, 500 g ai/ha, visual rating after 13 to 15 days, scale 0 (no effect) to 100 (complete control)
[6] = 125 g ai/ha, scale 0 (no effect) to 100 (complete control)
[7] = preemergence, 125 g ai/ha, 0 to 100 scale, 0 is no effect, 100 is complete control
[8] = Postemergence, 500 g ai/ha, visual rating after 13 to 15 days
[9] = 500 g ai/ha, scale 0 (no effect) to 100 (complete control)

CCC(=NO)c1cccc(NC(=O)c2cc(C(C)(C)C)nn2C)c1 [Compound 118]
Plant response rating, Barnyardgrass (barnyardgrass [1]; [4]): 90 | Plant response rating, Barnyardgrass (barnyardgrass [1]; [5]): 30 | Barnyardgrass plant response rating (barnyardgrass [1]; [6]): 10 | Plant response rating, Barnyardgrass (barnyardgrass [1]; [7]): 10 | Plant response rating, Surinam Grass (Surinam grass; [4]): 50 | Plant response rating, Surinam Grass (Surinam grass; [5]): 40 | Surinam Grass plant response rating (Surinam grass; [6]): 40 | Plant response rating, Surinam Grass (Surinam grass; [7]): 10 | Plant response rating, Cocklebur (cocklebur; [4]): 10 | Plant response rating, Cocklebur (cocklebur; [5]): 90 | Cocklebur plant response rating (cocklebur; [6]): 70 | Plant response rating, Cocklebur (cocklebur; [7]): 0 | Plant response rating, Corn (corn; [4]): 10 | Plant response rating, Corn (corn; [5]): 40 | Corn plant response rating (corn; [6]): 20 | Plant response rating, Corn (corn; [7]): 0 | Plant response rating, Crabgrass, Large (large crabgrass; [4]): 100 | Plant response rating, Crabgrass, Large (large crabgrass; [5]): 30 | Crabgrass, Large plant response rating (large crabgrass; [6]): 20 | Plant response rating, Crabgrass, Large (large crabgrass; [7]): 90 | Plant response rating, Foxtail, Giant (giant foxtail; [4]): 70 | Plant response rating, Foxtail, Giant (giant foxtail; [5]): 20 | Foxtail, Giant plant response rating (giant foxtail; [6]): 10 | Plant response rating, Foxtail, Giant (giant foxtail; [7]): 10 | Plant response rating, Pigweed (pigweed; [4]): 90 | Plant response rating, Pigweed (pigweed; [5]): 100 | Pigweed plant response rating (pigweed; [6]): 60 | Plant response rating, Pigweed (pigweed; [7]): 60 | Plant response rating, Velvetleaf (velvetleaf; [4]): 10 | Plant response rating, Velvetleaf (velvetleaf; [5]): 40 | Velvetleaf plant response rating (velvetleaf; [6]): 20 | Plant response rating, Velvetleaf (velvetleaf; [7]): 0 | Plant response rating, Blackgrass (blackgrass; [8]): 10 | Blackgrass plant response rating (blackgrass; 125 g ai/ha): 0 | Plant response rating, Wheat (wheat; [8]): 10 | Wheat plant response rating (wheat; 125 g ai/ha): 10 | Plant response rating, Oat, Wild (wild oat; [8]): 20 | Oat, Wild plant response rating (wild oat; 125 g ai/ha): 20 | Rice plant response rating (rice): 80 | Sedge, Umbrella plant response rating [2]: 80 | Ducksalad plant response rating (ducksalad): 80 | Barnyardgrass plant response rating (barnyardgrass [3]): 50

CCn1nc(C(C)(C)C)cc1C(=O)Nc1cccc(S(=O)(=O)C(F)(F)F)c1 [Compound 134]
Plant response rating, Barnyardgrass (barnyardgrass [1]; [4]): 80 | Barnyardgrass plant response rating (barnyardgrass [1]; [6]): 20 | Barnyardgrass plant response rating (barnyardgrass [1]; [9]): 40 | Plant response rating, Barnyardgrass (barnyardgrass [1]; [7]): 50 | Plant response rating, Surinam Grass (Surinam grass; [4]): 50 | Surinam Grass plant response rating (Surinam grass; [6]): 20 | Surinam Grass plant response rating (Surinam grass; [9]): 40 | Plant response rating, Surinam Grass (Surinam grass; [7]): 30 | Plant response rating, Cocklebur (cocklebur; [4]): 0 | Cocklebur plant response rating (cocklebur; [6]): 80 | Cocklebur plant response rating (cocklebur; [9]): 100 | Plant response rating, Cocklebur (cocklebur; [7]): 0 | Plant response rating, Corn (corn; [4]): 10 | Corn plant response rating (corn; [6]): 20 | Corn plant response rating (corn; [9]): 30 | Plant response rating, Corn (corn; [7]): 0 | Plant response rating, Crabgrass, Large (large crabgrass; [4]): 100 | Crabgrass, Large plant response rating (large crabgrass; [6]): 30 | Crabgrass, Large plant response rating (large crabgrass; [9]): 30 | Plant response rating, Crabgrass, Large (large crabgrass; [7]): 80 | Plant response rating, Foxtail, Giant (giant foxtail; [4]): 70 | Foxtail, Giant plant response rating (giant foxtail; [6]): 30 | Foxtail, Giant plant response rating (giant foxtail; [9]): 40 | Plant response rating, Foxtail, Giant (giant foxtail; [7]): 20 | Plant response rating, Pigweed (pigweed; [4]): 100 | Pigweed plant response rating (pigweed; [6]): 80 | Pigweed plant response rating (pigweed; [9]): 90 | Plant response rating, Pigweed (pigweed; [7]): 100 | Plant response rating, Velvetleaf (velvetleaf; [4]): 90 | Velvetleaf plant response rating (velvetleaf; [6]): 30 | Velvetleaf plant response rating (velvetleaf; [9]): 40 | Plant response rating, Velvetleaf (velvetleaf; [7]): 30 | Blackgrass plant response rating (blackgrass; 125 g ai/ha): 0 | Blackgrass plant response rating (blackgrass; 500 g ai/ha): 20 | Wheat plant response rating (wheat; 125 g ai/ha): 10 | Wheat plant response rating (wheat; 500 g ai/ha): 20 | Oat, Wild plant response rating (wild oat; 125 g ai/ha): 30 | Oat, Wild plant response rating (wild oat; 500 g ai/ha): 30 | Rice plant response rating (rice): 60 | Sedge, Umbrella plant response rating [2]: 80 | Ducksalad plant response rating (ducksalad): 90 | Barnyardgrass plant response rating (barnyardgrass [3]): 60

From patent publication US20060069132A1, “Azolecarboxamide herbicides” (priority 2004, published 2006)
